One may read the pIC50 as −log10 of the IC50, conventionally taken in molar units.

Each structure is given as a SMILES string. pIC50: −log10 of the molar value.

The values below come from ChEMBL document CHEMBL2086257, “Rhododendric acid A, a new ursane-type PTP1B inhibitor from the endangered plant Rhododendron brachycarpum G. Don” (Bioorg Med Chem Lett, 2012).

This assay has as its target T1, Tyrosine-protein phosphatase non-receptor type 1 (Homo sapiens, UniProt P18031).
T1 sequence (P18031 whole entry): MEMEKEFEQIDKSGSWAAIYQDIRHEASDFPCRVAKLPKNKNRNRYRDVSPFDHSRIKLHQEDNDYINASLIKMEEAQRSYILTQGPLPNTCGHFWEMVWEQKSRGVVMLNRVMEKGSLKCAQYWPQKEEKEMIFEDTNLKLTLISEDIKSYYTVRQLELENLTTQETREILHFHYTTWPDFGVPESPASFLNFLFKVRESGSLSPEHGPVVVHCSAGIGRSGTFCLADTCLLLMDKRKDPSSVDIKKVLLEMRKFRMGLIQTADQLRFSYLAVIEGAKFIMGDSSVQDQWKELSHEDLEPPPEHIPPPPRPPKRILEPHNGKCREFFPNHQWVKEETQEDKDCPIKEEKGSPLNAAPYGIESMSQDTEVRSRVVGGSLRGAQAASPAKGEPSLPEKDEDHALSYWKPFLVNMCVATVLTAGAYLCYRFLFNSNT
Briefly: Inhibition of human recombinant PTP1B using p-nitrophenyl phosphate as substrate assessed as p-nitrophenol release after 30 mins.
Take `C[C@H]1[C@H](C)CC[C@]2(C(=O)O)CC[C@]3(C)C(=CC[C@@H]4[C@@]5(C)CC[C@H](O)[C@@](C)(CO)[C@@H]5CC[C@]43C)[C@H]12`: the negative logarithm of the IC50 (pIC50) is 5.13. Under `C[C@@H]1CC[C@]2(C(=O)O)CC[C@]3(C)C(=CC[C@@H]4[C@@]5(C)CC[C@H](O)[C@@](C)(CO)[C@@H]5CC[C@]43C)[C@@H]2[C@]1(C)O` [ROTUNDIC ACID] stands 4.70; under `C[C@H]1[C@H](C)CC[C@]2(C(=O)O)CC[C@]3(C)C(=CC[C@@H]4[C@@]5(C)C[C@@H](O)[C@H](O)C(C)(C)[C@@H]5CC[C@]43C)[C@H]12` [COROSOLIC ACID], 5.15; under `C=C1CC[C@]2(C(=O)O)CC[C@]3(C)C(=CC[C@@H]4[C@@]5(C)C[C@@H](O)[C@@H](O)[C@@](C)(CO)[C@@H]5CC[C@]43C)[C@@H]2[C@H]1C`, 4.76. Turning to `C=C1CC[C@]2(C(=O)O)CC[C@]3(C)C(=CC[C@@H]4[C@@]5(C)CC[C@H](O)[C@@](C)(CO)[C@@H]5CC[C@]43C)[C@@H]2[C@H]1C` [RHODODENDRIC ACID A], the negative-log IC50 (pIC50) is 5.20.

Regarding `CCCCCCCCCCCCCCCC(=O)C1=C(O)[C@@H](CO)OC1=O`, the pIC50 was 5.40. On to `C=C1CC[C@]2(C(=O)O)CC[C@]3(C)C(=CC[C@@H]4[C@@]5(C)C[C@@H](O)[C@H](O)[C@@](C)(CO)[C@@H]5CC[C@]43C)[C@@H]2[C@H]1C` [ACTINIDIC ACID], for which the pIC50 was 4.74.
